Reference: BindingDB's records for doi:10.1021/jm960596u (National Cancer Institute-Bethesda, 1997)

Columns and labels:
Integrase [1] = molecular target: T1, Integrase (Human immunodeficiency virus 1, UniProt Q7ZJM1); test: Inhibitory concentration to inhibit HIV-1 integrase by 3' -processing method
Integrase [2] = molecular target: T1, Integrase; test: Inhibitory concentration against HIV-1 integrase by strand transfer method

T1 sequence (Q7ZJM1 whole entry): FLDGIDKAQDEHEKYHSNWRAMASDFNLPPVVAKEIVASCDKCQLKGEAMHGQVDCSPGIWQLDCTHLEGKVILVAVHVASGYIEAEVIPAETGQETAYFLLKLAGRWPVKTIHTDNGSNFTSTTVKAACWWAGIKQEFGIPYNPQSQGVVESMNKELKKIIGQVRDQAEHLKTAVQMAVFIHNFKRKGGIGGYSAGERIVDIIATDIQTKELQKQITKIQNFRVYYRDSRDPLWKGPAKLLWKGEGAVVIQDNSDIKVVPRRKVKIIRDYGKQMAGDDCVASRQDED

| Structure (SMILES) | IC50 (Integrase [1]) | IC50 (Integrase [2]) |
| --- | --- | --- |
| Cc1[nH]n(-c2ccccc2)c(=O)c1N=Nc1ccc(S(N)(=O)=O)cc1 | > 200 µM | > 200 µM |
| CCC(=O)CC=c1[nH]c2nnc(CCCCc3nnc4[nH]c(=CCC(=O)CC)c(=O)n34)n2c1=O [1-(5-oxo-3-{4-[5-oxo-6-(3-oxopentyl)-5H-imidazo[2,1-c][1,2,4]triazol-3-yl]butyl}-5H-imidazo[2,1-c][1,2,4]triazol-6-yl)-3-pentanone] | > 200 µM | > 200 µM |
| CC1=C(N)C(=NNc2ccc(S(=O)(=O)Nc3cc(C)nc(C)n3)cc2)C(=O)C(C)C1=O (stereo not given) [4-(2-Amino-3,5-dimethyl-4,6-dioxo-cyclohex-1-enylazo)-N-(2,6-dimethyl-pyrimidin-4-yl)-benzenesulfonamide] | > 200 µM | > 200 µM |
| CC1=C(N)C(=NNc2ccc(S(=O)(=O)Nc3scc(C)c3C)cc2)C(=O)C(C)C1=O (stereo not given) [4-(2-Amino-3,5-dimethyl-4,6-dioxo-cyclohex-1-enylazo)-N-(3,4-dimethyl-thiophen-2-yl)-benzenesulfonamide] | > 200 µM | > 200 µM |
| CC1=C(N)C(=NNc2ccc(S(=O)(=O)Nc3nccc(C)n3)cc2)C(=O)C(C)C1=O (stereo not given) [4-(2-Amino-3,5-dimethyl-4,6-dioxo-cyclohex-1-enylazo)-N-(4-methyl-pyrimidin-2-yl)-benzenesulfonamide] | > 200 µM | > 200 µM |
| CC1=C(N)C(=NNc2ccc(S(=O)(=O)Nc3nnc(C)s3)cc2)C(=O)C(C)C1=O (stereo not given) [4-(2-Amino-3,5-dimethyl-4,6-dioxo-cyclohex-1-enylazo)-N-(5-methyl-[1,3,4]thiadiazol-2-yl)-benzenesulfonamide] | > 200 µM | > 200 µM |
| CC1=C(N)C(=NNc2ccc(S(=O)(=O)Nc3ccccn3)cc2)C(=O)C(C)C1=O (stereo not given) [4-(2-Amino-3,5-dimethyl-4,6-dioxo-cyclohex-1-enylazo)-N-pyridin-2-yl-benzenesulfonamide] | > 200 µM | > 200 µM |
| CC1=C(N)C(=NNc2ccc(S(=O)(=O)Nc3ncccn3)cc2)C(=O)C(C)C1=O (stereo not given) [4-(2-Amino-3,5-dimethyl-4,6-dioxo-cyclohex-1-enylazo)-N-pyrimidin-2-yl-benzenesulfonamide] | > 200 µM | > 200 µM |
| CC1=C(N)C(=NNc2ccc(S(=O)(=O)Nc3nccs3)cc2)C(=O)C(C)C1=O (stereo not given) [4-(2-Amino-3,5-dimethyl-4,6-dioxo-cyclohex-1-enylazo)-N-thiazol-2-yl-benzenesulfonamide] | > 200 µM | > 200 µM |
| Cc1[nH]n(-c2ccccc2)c(=O)c1N=Nc1ccc(S(=O)(=O)Nc2ccccn2)cc1 [4-(3-Methyl-5-oxo-1-phenyl-4,5-dihydro-1H-pyrazol-4-ylazo)-N-pyridin-2-yl-benzenesulfonamide] | > 200 µM | > 200 µM |
| Cc1[nH]n(-c2ccccc2)c(=O)c1N=Nc1ccc(S(=O)(=O)Nc2ncccn2)cc1 [4-(3-Methyl-5-oxo-1-phenyl-4,5-dihydro-1H-pyrazol-4-ylazo)-N-pyrimidin-2-yl-benzenesulfonamide] | > 200 µM | > 200 µM |
| NS(=O)(=O)c1ccc(NN=C2Sc3nc4ccccc4n3C2=O)cc1 [4-(3-Oxo-2,3-dihydro-benzo[4,5]imidazo[2,1-b]thiazol-2-ylazo)-benzenesulfonamide] | > 200 µM | > 200 µM |
| NS(=O)(=O)c1ccc(N=Cc2c(O)n(-c3ccccc3)n(-c3ccccc3)c2=O)cc1 [4-[(3,5-Dioxo-1,2-diphenyl-pyrazolidin-4-ylidenemethyl)-amino]-benzenesulfonamide] | > 200 µM | > 200 µM |
| NS(=O)(=O)c1ccc(N=Nc2c(O)n(-c3ccccc3)n(-c3ccccc3)c2=O)cc1 [4-[N'-(3,5-Dioxo-1,2-diphenyl-pyrazolidin-4-ylidene)-hydrazino]-benzenesulfonamide] | > 200 µM | > 200 µM |
| Cc1cc(NS(=O)(=O)c2ccc(N=Nc3c(C)[nH]n(-c4ccccc4)c3=O)cc2)nc(C)n1 [N-(2,6-Dimethyl-pyrimidin-4-yl)-4-(3-methyl-5-oxo-1-phenyl-4,5-dihydro-1H-pyrazol-4-ylazo)-benzenesulfonamide] | > 200 µM | > 200 µM |
